Assay results: patent publication US8940909B2, “Indicator platform” (Biosynth AG, priority 2009, dated 2015)
Entries after “also recorded” stand apart in the source; their conditions may differ.

Tests used:
[1] = Water solubility and fluorescence of IO dyes from ester indicators; type: physicochemical; details: above pH 5
Text: Upon further acidification said dyes formed orange colored non-fluorescent precipitates from aqueous solutions. […] Evidently, said dyes are highly acidic in nature and highly fluorescent in deprotonated form.

[2] = test system: Salmonella enteritidis (RKI 05/07992); test: MDAB staining of bacterial colonies with indicators I9a, I10a, I11a, I12a on Nutrient Agar, aerobic; type: cell-based; details: Salmonella enteritidis (b-gal −); aR MDAB, equivalents 1:1; after 48 h of incubation
Method: (§1) Indicators were tested with live cultures on Nutrient Agar plates. Nutrient Agar (5 g/l peptone, 5 g/l NaCl, 2 g/l yeast extract, 1 g/l beef extract, 13 g/l agar, pH 7.4) was autoclaved and allowed to cool to 50° C. Then substrates were added to final concentrations of 150 mg/l (from a 20 mg/ml stock solution in DMF). Optionally MDAB was added to a concentration of 1 mM (from a 200 mM stock solution in DMF) and plates were poured. Agar plates were inoculated with cultures of Eschericha coli (NM1) or Salmonella enteritidis (RKI 05/07992) (pre-grown on nutrient broth for 8-18 hours) and aerobically incubated at 37° C.

Eschericha coli (NM1) = test: as above; type: cell-based; details: for colonial morphology, aerobic conditions: Escherichia coli (b-gal +), aR MDAB, equivalents 1:1, after 48 h of incubation; for Effectiveness of indicator system with MDAB under aerobic conditions: in combination with MDAB
Method: as §1

[3] = test system: beta-galactosidase negative Salmonella enteritidis (RKI 05/07992); type: cell-based; details: S. enteritidis (b-gal negative), 24 h, 150 mg/l substrate and 100 mg/l IPTG; for F: Fluorescence of colonies (strength): 366 nm UV; as to all read-outs here: key: −: absent; +/−: weak; +: strong; ++: very strong
Method: (§2) Nutrient Agar (5 g/l peptone, 5 g/l NaCl, 2 g/l yeast extract, 1 g/l beef extract, 13 g/l agar, pH 7.4) was autoclaved and allowed to cool to 50° C. Then indicators were added to final concentrations of 150 mg/l (from a 20 mg/ml stock solution in DMF).
(§3) Optionally IPTG was added to 100 mg/l (from a 100 mg/ml stock solution in H2O) and plates were poured. Agar plates were inoculated with cultures of beta-galactosidase positive Eschericha coli (NM1) or beta-galactosidase negative Salmonella enteritidis (RKI 05/07992) (pre-grown on nutrient broth for 8-18 hours) and incubated at 37° C. Plates were inspected at 16, 20, 24 and 48 hours and pictures were recorded at 18, 24, and 48 hours with a Digistore 2 Image documentation system (CAMAG) under white light.
(§4) A considerable number of indicators molecules (Table IVa, IVb) and a selection of labile groups (Table IVc) were tested with various microbial species producing different biomarker enzymes (external stimuli, eS). The color of stains ranges from yellow to red.
(§5) Plating media from Example 10 were examined under 366 nm UV irradiation at 16, 20, 24 and 48 hours for fluorescence by means of Digistore 2 Image documentation system (CAMAG). Loops of bacterial cells, grown for 48 hours on Nutrient Agar plates containing 150 mg/l beta-D-galactosidase indicator and 100 mg/l IPTG, were directly streaked into wells of black clear bottom microtiter plates. Fluorescence scans were recorded on a Spectramax M5 (Molecular Devices).

[4] = test system: beta-galactosidase positive Eschericha coli (NM1); test: IO staining of bacterial colonies on Nutrient Agar (color, fluorescence, localization, growth); as to C: Color of colonies (strength): key: −: absent; +/−: weak; +: strong; ++: very strong; as to F: Fluorescence of colonies (strength): key: −: absent; +/−: weak; +: strong; ++: very strong; as to G: Growth of colonies: key: −: absent; +/−: weak; +: strong; ++: very strong; as to L: Localization of stain on colonies: key: −: absent; +/−: weak; +: strong; ++: very strong; type: cell-based, E. coli; details: 150 mg/l substrate and 100 mg/l IPTG; for F: Fluorescence of colonies (colour) / G: Growth of colonies / L: Localization of stain on colonies / F: Fluorescence of colonies (strength): 24 h; for F: Fluorescence of colonies (colour) / F: Fluorescence of colonies (strength): 366 nm UV; for C: Color of colonies (colour of stain) / C: Color of colonies (strength): 24 h on Nutrient Agar; for G: Growth of colonies / L: Localization of stain on colonies / F: Fluorescence of colonies (strength) / C: Color of colonies (strength): E. coli
Method: as §2, §3, §4, §5

Saccharomyces cerevisiae = test: IO staining of fungal colonies; type: cell-based; details: Saccharomyces cerevisiae strain 306, galactosamidase −; agar plates containing indicator; as to growth: key: −: absent; +/−: weak/variable; +: strong
Method: (§6) Agar base (6 g/l soytone, 1.5 g/l yeast extract, 1 g/l glucose, 10 mM sodium phosphate buffer, 13 g/l agar, pH 7.0) was autoclaved and allowed to cool to 50° C. Then 1 mM MnSO4, 1 g/l N-Acetyl-D-galactosamine and: 1-(2-benzoylphenyl)-6-chloro-1H-indol-3-yl-N-acetyl-beta-D-galactosaminide (I21g) were added to final concentrations of 0.64 mM (from a 50 mM stock solution in DMF) and plates poured. Plates were inoculated with Candida albicans, Candida krusei and Saccharomyces cerevisiae and incubated at 37° C. for 48 hours.

Candida albicans = test: IO staining of fungal colonies; type: cell-based; as to growth: key: −: absent; +/−: weak/variable; +: strong
Method: as §6

Candida krusei = test: IO staining of fungal colonies; type: cell-based; details: Candida krusei strain 305, galactosamidase −; agar plates containing indicator; as to growth: key: −: absent; +/−: weak/variable; +: strong
Method: as §6

pig liver esterase = test: Indication of carbamate hydrolysis by esterase; type: biochemical; details: prolonged exposure to pig liver esterase
[5] = Indication of carbamate hydrolysis by alkali; details: short treatment with 1N aqueous NaOH solution
[6] = Indication of disulfide reduction by TCEP
[7] = Candida albicans strain 304, galactosamidase +, agar plates containing indicator

| Structure (SMILES) | colonial morphology, aerobic conditions [2] | Effectiveness of indicator system with MDAB under aerobic conditions (Eschericha coli (NM1)) | C: Color of colonies (strength) [3] | F: Fluorescence of colonies (strength) [3] | F: Fluorescence of colonies (colour) [4] | C: Color of colonies (colour of stain) [4] | G: Growth of colonies [4] | L: Localization of stain on colonies [4] | F: Fluorescence of colonies (strength) [4] | C: Color of colonies (strength) [4] | further results |
| --- | --- | --- | --- | --- | --- | --- | --- | --- | --- | --- | --- |
| O=C1c2ccccc2-n2c1c(O)c1ccccc12 [IO10, 11-Hydroxy-10H-indolo[1,2-a]indol-10-one] |  |  |  |  |  |  |  |  |  |  | Solubility in water [1]: freely soluble; also recorded: readily water-soluble |
| OC[C@H]1O[C@@H](Oc2cn(-c3ccccc3)c3cc(Cl)ccc23)[C@H](O)[C@@H](O)[C@H]1O [Indicator I9a, 6-Chloro-1-phenyl-1H-indol-3-yl-beta-D-galactopyranoside] | Cream colored colonies | effective |  |  |  |  |  |  |  |  | colonial morphology, aerobic conditions (Eschericha coli (NM1)): Red colored colonies |
| COC(=O)c1ccccc1-n1cc(O[C@@H]2O[C@H](CO)[C@H](O)[C@H](O)[C@H]2O)c2ccccc21 [Indicator I10a, 1-[2-(Methoxycarbonyl)phenyl]-1H-indol-3-yl-beta-D-galactopyranoside] | Cream colored colonies | effective | − | − | green | yellow-green | + | − | + | + |  |
| COC(=O)c1ccccc1-n1cc(O[C@@H]2O[C@H](CO)[C@H](O)[C@H](O)[C@H]2O)c2ccc(Cl)cc21 [Indicator I11a, 6-Chloro-1-[2-(methoxycarbonyl)phenyl]-1H-indol-3-yl-beta-D-galactopyranoside] | Cream colored colonies | effective | − | − | green | yellow-green | + | − | + | + |  |
| COC(=O)c1ccccc1-n1cc(O[C@@H]2O[C@H](CO)[C@H](O)[C@H](O)[C@H]2O)c2c(Cl)c(Br)ccc21 [Indicator I12a, 5-Bromo-4-chloro-1-[2-(methoxycarbonyl)phenyl]-1H-indol-3-yl-beta-D-galactopyranoside] | Cream colored colonies | effective | − | − | green | yellow-green | + | − | +/− | +/− | colonial morphology, aerobic conditions (Eschericha coli (NM1)): Brown colored colonies |
| CC(=O)N[C@H]1[C@H](Oc2cn(-c3ccccc3C(=O)c3ccccc3)c3cc(Cl)ccc23)O[C@H](CO)[C@H](O)[C@@H]1O [Indicator I21g, 1-(2-Benzoylphenyl)-6-chloro-1H-indol-3-yl-N-acetyl-beta-D-galactosaminide] |  |  |  |  |  |  |  |  |  |  | Color (Saccharomyces cerevisiae): Cream; Growth (Saccharomyces cerevisiae): +/−; Color (Candida albicans; [7]): Yellow; Growth (Candida albicans; [7]): +/−; Color of fungal colonies producing matching external stimulus (Candida albicans; D-galactosamidase biomarker of Candida albicans): bright yellow; Color (Candida krusei): Cream; Growth (Candida krusei): +/− |
| CCNC(=O)Oc1cn(-c2ccccc2C(=O)c2ccccc2)c2ccccc12 [Indicator I32, 1-(2-Benzoylphenyl)-1H-indol-3-yl ethyl carbamate] |  |  |  |  |  |  |  |  |  |  | Signal on carbamate hydrolysis by esterase (pig liver esterase): yellow precipitate; Signal on alkaline carbamate hydrolysis [5]: yellow precipitate |
| CC(=O)c1ccccc1-n1cc(SSc2cn(-c3ccccc3C(C)=O)c3ccccc23)c2ccccc21 [Indicator I33, Bis[1-(2-acetylphenyl)-1H-indol-3-yl]-disulfane] |  |  |  |  |  |  |  |  |  |  | Signal on disulfide reduction, alkaline conditions ([6]; alkaline conditions (1 N aqueous sodium hydroxide)): the solution turned yellow; Signal on disulfide reduction, neutral conditions ([6]; neutral conditions): no detectable signal |
